Patent US11155517B2, “4-substituted phenylamine derivatives and their use to protect crops by fighting undesired phytopathogenic micoorganisms” (PI INDUSTRIES LTD., priority 2016, dated 2021)

Tests used:
Type in all cases: cell-based
[1] = test system: Rhizoctonia solani; experiment: Rhizoctonia solani (rice sheath blight/potato black scurf) in vitro test, radial growth on Potato Dextrose Agar; conditions: 168 h, 300 ppm, seven days, 25° C., read-out: % control compared to the untreated check (radial growth)
[2] = test system: Septoria lycopersici; experiment: Septoria lycopersici (leaf spot of tomato) in vitro test, radial growth on Potato Dextrose Agar; conditions: 168 h, seven days, 25° C., read-out: % control compared to the untreated check (radial growth)
[3] = test system: Alternaria solani; experiment: Alternaria solani (early blight of tomato/potato) in vitro test, radial growth on Potato Dextrose Agar; conditions: 168 h, 300 ppm, seven days, 25° C., read-out: % control compared to the untreated check (radial growth)
[4] = test system: Colletotrichum capsici; experiment: Colletotrichum capsici (anthracnose) in vitro test, radial growth on Potato Dextrose Agar; conditions: Colletotrichum truncatum, 168 h; 300 ppm; seven days, 25° C.; read-out: % control compared to the untreated check (radial growth)
[5] = test system: Pyricularia oryzae; experiment: microbe, parasite or virus in culture; conditions: 168 h, read-out: % control compared to the untreated check (radial growth)
[6] = test system: Botrytis cinerea; experiment: Botrytis cinerea (gray mold) in vitro test, radial growth on Potato Dextrose Agar; conditions: 168 h, 300 ppm, seven days, 22° C., read-out: % (control) compared to the untreated check (radial growth)
[7] = test system: Fusarium culmorum; experiment: Fusarium culmorum (foot rot of cereals) in vitro test, radial growth on Potato Dextrose Agar; conditions: Fusarium culmorum, 168 h, read-out: % control compared to the untreated check (radial growth)

CCN(C)C=Nc1cc(C)c(Cc2cccc(OC)c2)cc1C [Compound 45, N-ethyl-N′-(4-(3-methoxybenzyl)-2,5-dimethylphenyl)-N-methylformimidamide]
inhibition of growth at 300 ppm [1]: > 80%
inhibition of growth at 300 ppm [2]: > 70%
inhibition of growth at 300 ppm [3]: > 75%
inhibition of growth at 300 ppm [4]: > 80%
inhibition of growth at 300 ppm [5]: > 75%
inhibition of growth at 300 ppm [6]: > 80%
inhibition of growth at 300 ppm [7]: 75%

CCN(C)C=Nc1cc(C)c(Cc2cccc(C(F)(F)F)c2)cc1C [Compound 46, N′-(2,5-dimethyl-4-(3-(trifluoromethyl)benzyl)phenyl)-N-ethyl-N-methylformimidamide]
inhibition of growth at 300 ppm [1]: > 80%
inhibition of growth at 300 ppm [2]: > 70%
inhibition of growth at 300 ppm [3]: > 75%
inhibition of growth at 300 ppm [4]: > 80%
inhibition of growth at 300 ppm [5]: > 75%
inhibition of growth at 300 ppm [6]: > 80%
inhibition of growth at 300 ppm [7]: 75%

CCN(C)C=Nc1cc(C)c(Cc2cccc(C#N)c2)cc1C [Compound 47, N′-(4-(3-cyanobenzyl)-2,5-dimethylphenyl)-N-ethyl-N-methylformimidamide]
inhibition of growth at 300 ppm [1]: > 80%
inhibition of growth at 300 ppm [2]: > 70%
inhibition of growth at 300 ppm [3]: > 75%
inhibition of growth at 300 ppm [4]: > 80%
inhibition of growth at 300 ppm [5]: > 75%
inhibition of growth at 300 ppm [6]: > 80%
inhibition of growth at 300 ppm [7]: 75%

CCN(C)C=Nc1cc(C)c(Cc2cccc([N+](=O)[O-])c2)cc1C [Compound 49, N′-(2,5-dimethyl-4-(3-nitrobenzyl)phenyl)-N-ethyl-N-methylformimidamide]
inhibition of growth at 300 ppm [1]: > 80%
inhibition of growth at 300 ppm [2]: > 70%
inhibition of growth at 300 ppm [3]: > 75%
inhibition of growth at 300 ppm [4]: > 80%
inhibition of growth at 300 ppm [5]: > 75%
inhibition of growth at 300 ppm [6]: > 80%
inhibition of growth at 300 ppm [7]: 75%

CCN(C)C=Nc1cc(C)c(Cc2cc(F)cc(C(F)(F)F)c2)cc1C [Compound 52, N-ethyl-N′-(4-(3-fluoro-5-(trifluoromethyl)benzyl)-2,5-dimethylphenyl)-N-methylformimidamide]
inhibition of growth at 300 ppm [1]: > 80%
inhibition of growth at 300 ppm [2]: > 70%
inhibition of growth at 300 ppm [3]: > 75%
inhibition of growth at 300 ppm [4]: > 80%
inhibition of growth at 300 ppm [5]: > 75%
inhibition of growth at 300 ppm [6]: > 80%
inhibition of growth at 300 ppm [7]: 75%

CCN(C)C=Nc1cc(C)c(Cc2cc(C(F)(F)F)ccc2C)cc1C [Compound 53, N′-(2,5-dimethyl-4-(2-methyl-5-(trifluoromethyl)benzyl)phenyl)-N-ethyl-N-methylformimidamide]
inhibition of growth at 300 ppm [2]: > 70%
inhibition of growth at 300 ppm [3]: > 75%
inhibition of growth at 300 ppm [4]: > 80%
inhibition of growth at 300 ppm [6]: > 80%
inhibition of growth at 300 ppm [7]: 75%

CCN(C)C=Nc1cc(C)c(Cc2ccc(OC)cc2)cc1C [Compound 54, N-ethyl-N′-(4-(4-methoxybenzyl)-2,5-dimethylphenyl)-N-methylformimidamide]
inhibition of growth at 300 ppm [1]: > 80%
inhibition of growth at 300 ppm [2]: > 70%
inhibition of growth at 300 ppm [3]: > 75%
inhibition of growth at 300 ppm [4]: > 80%
inhibition of growth at 300 ppm [5]: > 75%
inhibition of growth at 300 ppm [6]: > 80%
inhibition of growth at 300 ppm [7]: 75%

Cc1cc(N=CN2CCCCC2)c(C)cc1Cc1ccccc1F [Compound 58, N-(4-(2-fluorobenzyl)-2,5-dimethylphenyl)-1-(piperidin-1-yl)methanimine]
inhibition of growth at 300 ppm [1]: > 80%
inhibition of growth at 300 ppm [2]: > 70%
inhibition of growth at 300 ppm [3]: > 75%
inhibition of growth at 300 ppm [4]: > 80%
inhibition of growth at 300 ppm [5]: > 75%
inhibition of growth at 300 ppm [6]: > 80%
inhibition of growth at 300 ppm [7]: 75%

Cc1cc(N=CN2CCCCC2)c(C)cc1Cc1ccc(F)cc1 [Compound 60, N-(4-(4-fluorobenzyl)-2,5-dimethylphenyl)-1-(piperidin-1-yl)methanimine]
inhibition of growth at 300 ppm [1]: > 80%
inhibition of growth at 300 ppm [2]: > 70%
inhibition of growth at 300 ppm [3]: > 75%
inhibition of growth at 300 ppm [4]: > 80%
inhibition of growth at 300 ppm [5]: > 75%
inhibition of growth at 300 ppm [6]: > 80%
inhibition of growth at 300 ppm [7]: 75%

Cc1cc(N=CNC(C)C)c(C)cc1Cc1ccccc1F [Compound 66, N′-(4-(2-fluorobenzyl)-2,5-dimethylphenyl)-N-isopropylformimidamide]
inhibition of growth at 300 ppm [1]: > 80%
inhibition of growth at 300 ppm [2]: > 70%
inhibition of growth at 300 ppm [3]: > 75%
inhibition of growth at 300 ppm [4]: > 80%
inhibition of growth at 300 ppm [5]: > 75%
inhibition of growth at 300 ppm [6]: > 80%
inhibition of growth at 300 ppm [7]: 75%

Cc1cc(N=CNC(C)C)c(C)cc1Cc1ccccc1Cl [Compound 67, N′-(4-(2-chlorobenzyl)-2,5-dimethylphenyl)-N-isopropylformimidamide]
inhibition of growth at 300 ppm [1]: > 80%
inhibition of growth at 300 ppm [2]: > 70%
inhibition of growth at 300 ppm [3]: > 75%
inhibition of growth at 300 ppm [4]: > 80%
inhibition of growth at 300 ppm [5]: > 75%
inhibition of growth at 300 ppm [6]: > 80%
inhibition of growth at 300 ppm [7]: 75%

CCN(C)C=Nc1cc(C)c(Cc2ccc(OC)cc2)cc1Cl [Compound 69, N′-(2-chloro-4-(4-methoxybenzyl)-5-methylphenyl)-N-ethyl-N-methylformimidamide]
inhibition of growth at 300 ppm [1]: > 80%
inhibition of growth at 300 ppm [2]: > 70%
inhibition of growth at 300 ppm [3]: > 75%
inhibition of growth at 300 ppm [4]: > 80%
inhibition of growth at 300 ppm [5]: > 75%
inhibition of growth at 300 ppm [6]: > 80%
inhibition of growth at 300 ppm [7]: 75%

CCN(C)C=Nc1cc(C)c(Cc2cccc(OC)c2)cc1Cl [Compound 70, N′-(2-chloro-4-(3-methoxybenzyl)-5-methylphenyl)-N-ethyl-N-methylformimidamide]
inhibition of growth at 300 ppm [1]: > 80%
inhibition of growth at 300 ppm [2]: > 70%
inhibition of growth at 300 ppm [3]: > 75%
inhibition of growth at 300 ppm [4]: > 80%
inhibition of growth at 300 ppm [5]: > 75%
inhibition of growth at 300 ppm [6]: > 80%
inhibition of growth at 300 ppm [7]: 75%

CCN(C)C=Nc1cc(C)c(Cc2cccc(C#N)c2)cc1Cl [Compound 72, N′-(2-chloro-4-(3-cyanobenzyl)-5-methylphenyl)-N-ethyl-N-methylformimidamide]
inhibition of growth at 300 ppm [1]: > 80%
inhibition of growth at 300 ppm [2]: > 70%
inhibition of growth at 300 ppm [3]: > 75%
inhibition of growth at 300 ppm [4]: > 80%
inhibition of growth at 300 ppm [5]: > 75%
inhibition of growth at 300 ppm [7]: 75%

Cc1cc(N=CN(C)C(C)C)c(C)cc1Cc1ccccc1Cl [Compound 82, N′-(4-(2-chlorobenzyl)-2,5-dimethylphenyl)-N-isopropyl-N-methylformimidamide]
inhibition of growth at 300 ppm [1]: > 80%
inhibition of growth at 300 ppm [2]: > 70%
inhibition of growth at 300 ppm [3]: > 75%
inhibition of growth at 300 ppm [4]: > 80%
inhibition of growth at 300 ppm [5]: > 75%
inhibition of growth at 300 ppm [6]: > 80%
inhibition of growth at 300 ppm [7]: 75%

C=CCN(C)C=Nc1cc(C)c(Cc2ccccc2F)cc1C [Compound 83, N-allyl-N′-(4-(2-fluorobenzyl)-2,5-dimethylphenyl)-N-methylformimidamide]
inhibition of growth at 300 ppm [1]: > 80%
inhibition of growth at 300 ppm [2]: > 70%
inhibition of growth at 300 ppm [3]: > 75%
inhibition of growth at 300 ppm [4]: > 80%
inhibition of growth at 300 ppm [5]: > 75%
inhibition of growth at 300 ppm [6]: > 80%
inhibition of growth at 300 ppm [7]: 75%

C=CCN(C)C=Nc1cc(C)c(Cc2ccccc2Cl)cc1C [Compound 84, N-allyl-N′-(4-(2-chlorobenzyl)-2,5-dimethylphenyl)-N-methylformimidamide]
inhibition of growth at 300 ppm [1]: > 80%
inhibition of growth at 300 ppm [2]: > 70%
inhibition of growth at 300 ppm [3]: > 75%
inhibition of growth at 300 ppm [4]: > 80%
inhibition of growth at 300 ppm [5]: > 75%
inhibition of growth at 300 ppm [6]: > 80%
inhibition of growth at 300 ppm [7]: 75%

CCN(C)C=Nc1cc(C)c(Cc2cccc(N(C)C)c2)cc1C [Compound 111, N′-(4-(3-(dimethylamino)benzyl)-2,5-dimethylphenyl)-N-ethyl-N-methylformimidamide]
inhibition of growth at 300 ppm [1]: > 80%
inhibition of growth at 300 ppm [2]: > 70%
inhibition of growth at 300 ppm [3]: > 75%
inhibition of growth at 300 ppm [4]: > 80%
inhibition of growth at 300 ppm [5]: > 75%
inhibition of growth at 300 ppm [7]: 75%

CCN(C)C=Nc1cc(C)c(/C(=N\C)c2ccccc2C)cc1C [Compound 215, N′-(2,5-dimethyl-4-((Z)-(methylimino)(o-tolyl)methyl)phenyl)-N-ethyl-N-methylformimidamide]
inhibition of growth at 300 ppm [1]: > 80%
inhibition of growth at 300 ppm [2]: > 70%
inhibition of growth at 300 ppm [3]: > 75%
inhibition of growth at 300 ppm [4]: > 80%
inhibition of growth at 300 ppm [5]: > 75%
inhibition of growth at 300 ppm [7]: 75%

CCN(C)C=Nc1cc(C#N)c(Cc2ccc(C)cc2)cc1C [Compound 252, N′-(5-cyano-2-methyl-4-(4-methylbenzyl)phenyl)-N-ethyl-N-methylformimidamide]
inhibition of growth at 300 ppm [1]: > 80%
inhibition of growth at 300 ppm [2]: > 70%
inhibition of growth at 300 ppm [3]: > 75%
inhibition of growth at 300 ppm [5]: > 75%
inhibition of growth at 300 ppm [6]: > 80%
inhibition of growth at 300 ppm [7]: 75%

CCN(C)C=Nc1cc(Cl)c(Cc2cccc(C)c2)cc1C [Compound 260, N′-(5-chloro-2-methyl-4-(3-methylbenzyl)phenyl)-N-ethyl-N-methylformimidamide]
inhibition of growth at 300 ppm [2]: > 70%
inhibition of growth at 300 ppm [3]: > 75%
inhibition of growth at 300 ppm [4]: > 80%
inhibition of growth at 300 ppm [5]: > 75%
inhibition of growth at 300 ppm [6]: > 80%
inhibition of growth at 300 ppm [7]: 75%

CCN(C)C=Nc1ccc(Cc2ccccc2C)c2ccccc12 [Compound 271, N-ethyl-N-methyl-N′-(4-(2-methylbenzyl)naphthalen-1-yl)formimidamide]
inhibition of growth at 300 ppm [1]: > 80%
inhibition of growth at 300 ppm [2]: > 70%
inhibition of growth at 300 ppm [3]: > 75%
inhibition of growth at 300 ppm [5]: > 75%
inhibition of growth at 300 ppm [6]: > 80%
inhibition of growth at 300 ppm [7]: 75%
